Test results: PMC12770358, “Molecular defense strategy of volatile organic compound-emitting plants (order Piperales) against herbivorous mammals” (Communications Biology, 2025)

Assays:
Type in all cases: cell-based
[1] = target: T1, TRPA1 (Homo sapiens, UniProt O75762); test: excised-patch single-channel recording and calcium imaging, […]
T1 construct: Human TRPA1 (NM_007332) expressed in HEK293T cells

[2] = target: T2, TRPA1 (Homo sapiens, UniProt O75762, C641A); test: whole-cell patch clamp dose-response
T2 construct: hTRPA1 mutant expressed in HEK293 cells

[3] = target: T1, TRPA1; test: whole-cell and excised-patch (inside-out/outside-out) patch clamp, calcium imaging

T1 sequence (O75762 whole entry): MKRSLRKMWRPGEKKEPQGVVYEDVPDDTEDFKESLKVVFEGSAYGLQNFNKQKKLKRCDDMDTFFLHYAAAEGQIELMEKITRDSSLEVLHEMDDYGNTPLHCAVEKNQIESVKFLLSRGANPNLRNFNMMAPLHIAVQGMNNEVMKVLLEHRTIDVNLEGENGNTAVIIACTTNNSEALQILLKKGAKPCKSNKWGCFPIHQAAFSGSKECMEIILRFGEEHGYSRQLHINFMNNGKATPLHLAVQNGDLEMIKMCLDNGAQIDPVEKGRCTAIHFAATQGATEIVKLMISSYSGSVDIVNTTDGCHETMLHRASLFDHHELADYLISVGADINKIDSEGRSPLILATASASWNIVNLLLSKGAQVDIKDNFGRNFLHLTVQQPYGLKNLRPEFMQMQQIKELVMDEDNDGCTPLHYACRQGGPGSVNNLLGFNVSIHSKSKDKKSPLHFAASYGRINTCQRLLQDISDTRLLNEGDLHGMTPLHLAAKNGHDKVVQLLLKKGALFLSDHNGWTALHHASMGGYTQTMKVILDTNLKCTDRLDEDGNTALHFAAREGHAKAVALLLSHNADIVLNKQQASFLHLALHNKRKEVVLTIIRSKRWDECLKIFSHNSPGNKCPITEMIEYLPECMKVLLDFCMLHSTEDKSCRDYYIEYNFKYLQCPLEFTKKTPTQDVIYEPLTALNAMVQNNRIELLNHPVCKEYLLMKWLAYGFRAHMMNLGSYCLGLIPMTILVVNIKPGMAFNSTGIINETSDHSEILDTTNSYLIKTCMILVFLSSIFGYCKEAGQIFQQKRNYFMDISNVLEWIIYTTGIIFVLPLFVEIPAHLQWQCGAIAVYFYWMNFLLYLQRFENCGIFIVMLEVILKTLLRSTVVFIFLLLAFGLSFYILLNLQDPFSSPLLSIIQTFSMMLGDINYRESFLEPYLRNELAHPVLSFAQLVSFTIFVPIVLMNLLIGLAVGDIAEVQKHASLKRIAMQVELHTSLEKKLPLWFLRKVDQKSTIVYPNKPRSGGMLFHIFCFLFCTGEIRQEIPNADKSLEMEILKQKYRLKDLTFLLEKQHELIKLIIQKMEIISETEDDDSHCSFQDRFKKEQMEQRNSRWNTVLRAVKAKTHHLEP
T2 sequence (O75762 whole entry C641A): as the sequence (O75762 whole entry) above, with C641A counted along it

Row | SMILES | excised-patch single-channel recording and calcium imaging, 1 mM [1] | EC50 [2] | EC50 [3]
1 | C=CCN=C=S [AITC, allyl isothiocyanate] | consistently observed in both configurations, mirroring the effects of AITC, a membrane-permeable TRPA1 agonist | – | –
2 | CCCCCCCCCC(=O)CC(O)S(=O)(=O)O (stereo not drawn) [SH, sodium houttuyfonate] | – | 432 ± 9.72 µM | 343 ± 12.5 µM
